From patent US8211929B2, “Pyrimidine derivatives as kinase modulators and method of use” (Exelixis, Inc., priority 2004, dated 2012)
Read-outs that look alike come from different tables or passages of the source.

What was measured:
IGF 3P = molecular target: T1, IGF 3P (Homo sapiens, UniProt P08069); assay: IGF1R kinase assay (LCCA), IGF 3P; format: biochemical
T1 construct: human IGF1R kinase domain residues M954-C1367; made in house; host or cells: baculovirus expression (insect cells)
Summary of the method: (§1)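 Read-out is percent ATP remaining, detected by luciferase-luciferin luminescence after a 2 h ambient reaction. Reaction contained 4 nM IGF1R kinase domain (residues M954-C1367, baculovirus-made), 3 μM ATP (near KM), 4 μM poly EY, pH 7.5 with Mg2+/Mn2+. Ten inhibitor concentrations; IC50 by Hill-type curve fit.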

[1] = molecular target: T2, (Homo sapiens, UniProt P08069); assay: IGF1R kinase assay (LCCA), IGF 0P; format: biochemical
T2 construct: human IGF1R kinase domain residues M954-C1367; made in house; host or cells: baculovirus expression (insect cells)
T2 sequence (P08069 954-1367): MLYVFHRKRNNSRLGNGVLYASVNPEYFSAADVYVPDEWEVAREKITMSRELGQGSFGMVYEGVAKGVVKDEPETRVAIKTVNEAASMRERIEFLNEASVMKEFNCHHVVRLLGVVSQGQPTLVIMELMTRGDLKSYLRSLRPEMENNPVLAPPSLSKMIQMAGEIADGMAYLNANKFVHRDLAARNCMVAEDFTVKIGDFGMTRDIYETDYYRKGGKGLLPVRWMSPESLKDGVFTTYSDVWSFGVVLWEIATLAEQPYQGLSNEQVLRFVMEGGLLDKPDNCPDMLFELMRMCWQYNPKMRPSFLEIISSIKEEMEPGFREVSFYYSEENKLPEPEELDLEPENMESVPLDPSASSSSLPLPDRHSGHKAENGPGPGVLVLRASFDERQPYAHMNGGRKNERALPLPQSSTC
Summary of the method: as §1

T1 sequence (P08069 954-1367): as above

SMILES	IC50 (IGF 3P)	IC50 [1]	IC50 (IGF 3P; IGF 3P)	IC50 ([1]; IGF 0P)
CC(=O)N1CCN(c2cc(Nc3cc(C4CC4)[nH]n3)nc(NCc3cc(C(C)C)no3)n2)CC1 [Example 614, 6-(4-acetylpiperazin-1-yl)-N^4-(5-cyclopropyl-1H-pyrazol-3-yl)-N^2-{[3-(1-methylethyl)isoxazol-5-yl]methyl}pyrimidine-2,4-diamine]	< 0.05 µM	0.05 to 0.5 µM		
CC(C)c1cc(CNc2nc(Nc3cc(C4CC4)[nH]n3)cc(N3CCN(S(C)(=O)=O)CC3)n2)on1 [Example 615, N^4-(5-cyclopropyl-1H-pyrazol-3-yl)-N^2-{[3-(1-methylethyl)isoxazol-5-yl]methyl}-6-[4-(methylsulfonyl)piperazin-1-yl]pyrimidine-2,4-diamine]	< 0.05 µM	0.05 to 0.5 µM		
Cc1cc(Nc2cc(N3CCOCC3)nc(NCc3cc(-c4ccccc4)no3)n2)[nH]n1 [Example 617, N^4-(3-methyl-1H-pyrazol-5-yl)-6-morpholin-4-yl-N^2-[(3-phenylisoxazol-5-yl)methyl]pyrimidine-2,4-diamine]	< 0.05 µM	0.05 to 0.5 µM		
Cc1cc(Nc2cc(N3CCN(C)CC3)nc(NCc3cc(-c4ccccc4)no3)n2)[nH]n1 [Example 618, 6-(4-methylpiperazin-1-yl)-N^4-(3-methyl-1H-pyrazol-5-yl)-N^2-[(3-phenylisoxazol-5-yl)methyl]pyrimidine-2,4-diamine]	< 0.05 µM	0.05 to 0.5 µM		
Cc1cc(Nc2cc(OCCN3CCOCC3)nc(NCc3cc(-c4ccccc4)no3)n2)[nH]n1 [Example 619, N^4-(3-methyl-1H-pyrazol-5-yl)-6-[(2-morpholin-4-ylethyl)oxy]-N^2-[(3-phenylisoxazol-5-yl)methy]pyrimidine-2,4-diamine]	0.05 to 0.5 µM	0.05 to 0.5 µM		
Clc1c(Nc2cc(C3CC3)n[nH]2)nc(NCc2cc(-c3ccccc3)no2)nc1N1CCOCC1 [Example 624, 5-chloro-N^4-(3-cyclopropyl-1H-pyrazol-5-yl)-6-morpholin-4-yl-N^2-[(3-phenylisoxazol-5-yl)methyl]pyrimidine-2,4-diamine]	0.05 to 0.5 µM	0.05 to 0.5 µM		
CN1CCN(c2nc(NCc3cc(-c4ccccc4)no3)nc(Nc3cc(C4CC4)n[nH]3)c2Cl)CC1 [Example 625, 5-chloro-N^4-(3-cyclopropyl-1H-pyrazol-5-yl)-6-(4-methylpiperazin-1-yl)-N^2-[(3-phenylisoxazol-5-yl)methyl]pyrimidine-2,4-diamine]	0.05 to 0.5 µM	0.05 to 0.5 µM		
Cc1cc(Nc2cc(N3CCN(C)CC3)nc(NCc3cc(C)no3)n2)[nH]n1 [Example 626, N^2-[(3-methylisoxazol-5-yl)methyl]-6-(4-methylpiperazin-1-yl)-N^4-(3-methyl-1H-pyrazol-5-yl)pyrimidine-2,4-diamine]	0.05 to 0.5 µM	0.5 to 5 µM		
Cc1cc(Nc2cc(N3CCOCC3)nc(NCc3cc(C)no3)n2)[nH]n1 [Example 627, N^2-[(3-methylisoxazol-5-yl)methyl]-N^4-(3-methyl-1H-pyrazol-5-yl)-6-morpholin-4-ylpyrimidine-2,4-diamine]	0.05 to 0.5 µM	0.5 to 5 µM		
Cc1cc(CNc2nc(Nc3cc(C4CC4)[nH]n3)cc(NC3CC4CCC(C3)N4C)n2)on1 (centres unmarked) [Example 630, N^4-(5-cyclopropyl-1H-pyrazol-3-yl)-N^6-(8-methyl-8-azabicyclo[3.2.1]oct-3-yl)-N^2-[(3-methylisoxazol-5-yl)methyl]pyrimidine-2,4,6-triamine]	< 0.05 µM	0.05 to 0.5 µM		
CC(C)c1cc(CNc2nc(Nc3cc(C4CC4)[nH]n3)cc(N3C[C@H]4C[C@@H]3CN4Cc3ccccc3)n2)on1 [Example 636, N^4-(5-cyclopropyl-1H-pyrazol-3-yl)-N^2-{[3-(1-methylethyl)isoxazol-5-yl]methyl}-6-[(1R,4R)-5-(phenylmethyl)-2,5-diazabicyclo[2.2.1]hept-2-yl]pyrimidine-2,4-diamine]			< 0.05 µM	0.05 to 0.5 µM

The next lines start with the values.

IC50 (IGF 3P)	IC50 [1]	IC50 (IGF 3P; IGF 3P)	IC50 ([1]; IGF 0P)	SMILES
< 0.05 µM	0.05 to 0.5 µM			Cc1cc(Nc2cc(C3CC3)[nH]n2)nc(NCc2cc(-c3cccnc3)no2)n1 [Example 610, N^4-(5-cyclopropyl-1H-pyrazol-3-yl)-6-methyl-N^2-[(3-pyridin-3-ylisoxazol-5-yl)methyl]pyrimidine-2,4-diamine]
< 0.05 µM	0.05 to 0.5 µM			CN1CCN(c2cc(Nc3cc(C4CC4)[nH]n3)nc(NCc3cc(-c4ccccn4)no3)n2)CC1 [Example 611, N^4-(5-cyclopropyl-1H-pyrazol-3-yl)-6-(4-methylpiperazin-1-yl)-N^2-[(3-pyridin-2-ylisoxazol-5-yl)methyl]pyrimidine-2,4-diamine]
< 0.05 µM	0.05 to 0.5 µM			c1ccc(-c2cc(CNc3nc(Nc4cc(C5CC5)[nH]n4)cc(N4CCOCC4)n3)on2)nc1 [Example 612, N^4-(5-cyclopropyl-1H-pyrazol-3-yl)-6-morpholin-4-yl-N^2-[(3-pyridin-2-ylisoxazol-5-yl)methyl]pyrimidine-2,4-diamine]
0.05 to 0.5 µM	0.05 to 0.5 µM			Cc1cc(Nc2cc(C3CC3)[nH]n2)nc(NCc2cc(-c3ccncc3)no2)n1 [Example 620, N^4-(5-cyclopropyl-1H-pyrazol-3-yl)-6-methyl-N^2-[(3-pyridin-4-ylisoxazol-5-yl)methyl]pyrimidine-2,4-diamine]
< 0.05 µM	0.05 to 0.5 µM			Cc1cc(Nc2cc(C3CC3)[nH]n2)nc(NCc2cc(-c3ccc(F)c(F)c3)no2)n1 [Example 621, N^4-(5-cyclopropyl-1H-pyrazol-3-yl)-N^2-{[3-(3,4-difluorophenyl)isoxazol-5-yl]methyl}-6-methylpyrimidine-2,4-diamine]
< 0.05 µM	0.05 to 0.5 µM			Cc1cc(Nc2cc(C3CC3)[nH]n2)nc(NCc2cc(-c3ccc(F)cc3F)no2)n1 [Example 622, N^4-(5-cyclopropyl-1H-pyrazol-3-yl)-N^2-{[3-(2,4-difluorophenyl)isoxazol-5-yl]methyl}-6-methylpyrimidine-2,4-diamine]
< 0.05 µM	0.05 to 0.5 µM			Cc1cc(Nc2cc(C3CC3)[nH]n2)nc(NCc2cc(-c3cnccn3)no2)n1 [Example 623, N^4-(5-cyclopropyl-1H-pyrazol-3-yl)-6-methyl-N^2-[(3-pyrazin-2-ylisoxazol-5-yl)methyl]pyrimidine-2,4-diamine]
< 0.05 µM	0.05 to 0.5 µM			CN1CCN(c2cc(Nc3cc(C4CC4)[nH]n3)nc(NCc3cc(-c4ccncn4)no3)n2)CC1 [Example 628, N^4-(5-cyclopropyl-1H-pyrazol-3-yl)-6-(4-methylpiperazin-1-yl)-N^2-[(3-pyrimidin-4-ylisoxazol-5-yl)methyl]pyrimidine-2,4-diamine]
< 0.05 µM	0.05 to 0.5 µM			CN1CCN(c2cc(Nc3cc(C4CC4)[nH]n3)nc(NCc3cc(-c4ccoc4)no3)n2)CC1 [Example 629, N^4-(5-cyclopropyl-1H-pyrazol-3-yl)-N^2-[(3-furan-3-ylisoxazol-5-yl)methyl]-6-(4-methylpiperazin-1-yl)pyrimidine-2,4-diamine]
< 0.05 µM	0.05 to 0.5 µM			Cc1cc(CNc2nc(Nc3cc(C4CC4)[nH]n3)cc(N3CC4CC3CN4C)n2)on1 (centres unmarked) [Example 631, N^4-(5-cyclopropyl-1H-pyrazol-3-yl)-6-(5-methyl-2,5-diazabicyclo[2.2.1]hept-2-yl)-N^2-[(3-methylisoxazol-5-yl)methyl]pyrimidine-2,4-diamine]
< 0.05 µM	0.05 to 0.5 µM			Cc1cc(CNc2nc(Nc3cc(C4CC4)[nH]n3)cc(NC3CC4CCC3C4)n2)on1 (centres unmarked) [Example 634, N^4-bicyclo[2.2.1]hept-2-yl-N^6-(5-cyclopropyl-1H-pyrazol-3-yl)-N^2-[(3-methylisoxazol-5-yl)methyl]pyrimidine-2,4,6-triamine]
< 0.05 µM	0.05 to 0.5 µM			Cc1cc(CNc2nc(Nc3cc(C4CC4)[nH]n3)cc(N3C[C@H]4C[C@@H]3CN4Cc3ccccc3)n2)on1 [Example 635, N^4-(5-cyclopropyl-1H-pyrazol-3-yl)-N^2-[(3-methylisoxazol-5-yl)methyl]-6-[(1R,4R)-5-(phenylmethyl)-2,5-diazabicyclo[2.2.1]hept-2-yl]pyrimidine-2,4-diamine]
< 0.05 µM	0.05 to 0.5 µM			c1cc(-c2cc(CNc3nc(Nc4cc(C5CC5)[nH]n4)cc(N4CCOCC4)n3)on2)ncn1 [Example 637, N^4-(5-cyclopropyl-1H-pyrazol-3-yl)-6-morpholin-4-yl-N^2-[(3-pyrimidin-4-ylisoxazol-5-yl)methyl]pyrimidine-2,4-diamine]
< 0.05 µM	0.05 to 0.5 µM			CN(C)CCOc1cc(Nc2cc(C3CC3)[nH]n2)nc(NCc2cc(-c3ccncn3)no2)n1 [Example 638, N^4-(5-cyclopropyl-1H-pyrazol-3-yl)-6-{[2-(dimethylamino)ethyl]oxy}-N^2-[(3-pyrimidin-4-ylisoxazol-5-yl)methyl]pyrimidine-2,4-diamine]
0.5 to 5 µM	0.5 to 5 µM			Cc1cc(Nc2cc(C3CC3)[nH]n2)nc(NCc2cc(-c3ccc(F)cn3)no2)n1 [Example 639, N^4-(5-cyclopropyl-1H-pyrazol-3-yl)-N^2-{[3-(5-fluoropyridin-2-yl)isoxazol-5-yl]methyl}-6-methylpyrimidine-2,4-diamine]
< 0.05 µM	0.05 to 0.5 µM			CN1CCN(c2cc(Nc3cc(C4CC4)[nH]n3)nc(NCc3cc(-c4cccs4)no3)n2)CC1 [Example 640, N^4-(5-cyclopropyl-1H-pyrazol-3-yl)-6-(4-methylpiperazin-1-yl)-N^2-{[3-(2-thienyl)isoxazol-5-yl]methyl}pyrimidine-2,4-diamine]
< 0.05 µM	0.05 to 0.5 µM			CN(C)CCOc1cc(Nc2cc(C3CC3)[nH]n2)nc(NCc2cc(-c3ccccn3)no2)n1 [Example 641, N^4-(5-cyclopropyl-1H-pyrazol-3-yl)-6-{[2-(dimethylamino)ethyl]oxy}-N^2-[(3-pyridin-2-ylisoxazol-5-yl)methyl]pyrimidine-2,4-diamine]
